Assay results published in patent US5622960A, “Topoisomerase II inhibitors and therapeutic uses therefor” (The United States of America as represented by the …, priority 1992, dated 1997).

Assays:
Topoisomerase II = test: topoisomerase II inhibition: drug-induced DNA cleavage in presence of HL-60 extract or purified top 2; assay type: biochemical; conditions: for Topoisomerase II inhibition: class symbols without legend, HL-60 extract or purified top 2; for top 2 inhibition / top 2 activity (in words): DNA cleavage assays; for effect of hydroxyl substitution on top 2 activity: 1 versus 6, DMDP versus DMEP
Text: Because the azatoxin skeleton is synthetically accessible, a large number of derivatives are readily prepared and screened for top 2 inhibitory activity in accordance with the present invention. Such screening can be effected by means of an in vitro assay which employs purified top 2 and ^32 P-end-labelled DNA. In such an assay, top 2 inhibition by a test substance results in DNA fragmentation which can be detected by agarose gel electrophoresis, as described by Fesen and Pommier, J. Biol. Chem. 19:11354-59 (1989); by the filter-binding assay described by Pommier et al., Biochem. 24:6410-16 (1985); or by the sodium dodecylsulfate precipitation assay employed by Nelson et al., Proc. Nat'l Acad. Sci. USA81: 1361-65 (1984).
(§1) Chemicals, and enzymes: Azatoxin and its derivatives, as well as the demethyldesoxypodophyllotoxin (DMDP) and demethylepipodophyllotoxin (DMEP), were synthesized by conventional methods. The compounds m-AMSA and mitoxantrone were obtained from the Drug Synthesis and Chemistry Branch, National Cancer Institute, Bethesda, Md. The compounds VP-16 and VM-26 were obtained from Bristol-Myers Company (Wallingford, Conn.). Drug stock solutions were made in dimethylsulfoxide at 10 mM. Further dilutions were made in distilled water. Various other reagents, including simian virus 40 (SV40) and c-myc human DNA inserts in plasmid pBR322, restriction endonucleases, DNA topoisomerase I, T4 polynucleotide kinase, calf intestine phosphatase, agarose and polyacrylamide/bis, were purchased from Bethesda Research Laboratories (Gaithersburg, Md.), from the American Type Culture Collection (Rockville, Md.) or from New England Biolabs (Beverly, Mass.). [Gamma-^32 P]ATP was purchased from New England Nuclear Research Products (Boston, Mass.).
(§2) DNA topoisomerase II was purified from mouse leukemia L1210 cell nuclei as described, for example, by Pommier et al. (1985), supra, and was stored at -70° C. in 40% (v/v) glycerol, 0.35 M NaCl, 5 mM MgCl2, 1 mM KH2 PO4, 0.2 mM dithiothreitol and 0.1 mM phenylmethanesulfonyl fluoride (pH 6.4). The purified enzyme yielded a single 170 kDa band after silver staining of SDS-polyacrylamide gels, in accordance with the description of Pommier et al., Cancer Res. 46: 3075-81 (1986).
(§3) Preparation of end-labeled DNA fragments: DNA fragments were 5' end-labeled as described, for example, by Fesen and Pommier (1989), supra. Briefly, native DNA was first linearized with a restriction enzyme, […] then the 5'-DNA termini were dephosphorylated with calf alkaline phosphatase and labeled with [gamma-^32 P]ATP using T4 polynucleotide kinase. For double-strand breaks assays using HL-60 nuclear extract, SV40 DNA was digested with BclI endonuclease and labeled at both DNA termini. For sequencing experiments, SV40 and c-myc DNAs were first 5'-end labeled at the XhoII and XbaI restriction sites, respectively. Then, in order to generate uniquely 5'-end-labeled fragments, labeled DNA was subjected to a second enzyme digestion, PflMI for SV40, and EcoRI plus HindIII for c-myc DNA. The resulting DNA fragments were separated by agarose gel electrophoresis and isolated by electroelution. Purification by phenol-chloroform extraction and ethanol precipitation were included between each step and at the end of the labeling procedures, pursuant to Pommier et al., J. Molec. Biol. 222: 909-24 (1991).
Topoisomerase II-induced DNA cleavage reactions: DNA fragments were equilibrated with or without drug in 10 mM Tris-HCl, pH 7.5, 50 mM KCl, 5 mM MgCl2 0.1 mM EDTA, 1 mM ATP and 15 μg/ml bovine serum albumin for 5 minutes before addition of purified topoisomerase II (40 to 70 ng) or HL-60 nuclear extract in 20 μl final reaction volume. Reactions were stopped by adding sodium dodecyl sulfate (SDS) to a final concentration of 1% and proteinase K to 400 μg/ml, followed by incubation for 1 hour at 40° C. […]

[1] = tested on: top 2 (HL-60 nuclear extract); test: Induction of DNA double-strand breaks in SV40 DNA in presence of HL-60 nuclear extract; assay type: biochemical; conditions: up to 1 mM
Experimental: as §1
as §3, with “Purification by phenol-chloroform extraction and ethanol precipitation were included between each step and at the end of the labeling procedures, pursuant to Pommier et al., J. Molec. Biol. 222: 909-24 (1991).” left out
For agarose gel analysis, 3 μl (10×) loading buffer (0.3% bromophenol blue, 16% Ficoll, 10 mM Na2 HPO4) was added to each sample which was then heated at 65° C. for 1-2 minutes before loading into an agarose gel made in (1×) TBE (89 mM Tris, 89 mM boric acid, 2 mM EDTA, pH8), in accordance with Fesen & Pommier (1989), supra. […] The quantification of drug-induced DNA double-strand breaks in the presence of HL-60 nuclear extract was effected as described in the next paragraph.
Radioactive gels were counted in betascope 603 blot analyzer. […] Drug-induced cleavage was expressed as: [formula] where C. and T. are the counts for cleaved and total DNA, respectively, in presence of nuclear extract without drug.
Drug-induced DNA double-strand breaks were measured first in SV40 DNA in the presence of HL-60 nuclear extracts. […]

[2] = molecular target: T1, purified murine leukemia top 2 (Mus musculus, UniProt Q01320); test: Sequencing of topoisomerase II cleavage sites (SV40 and c-myc DNA); assay type: biochemical
T1 construct: single 170 kDa band on silver-stained SDS-PAGE
T1 sequence (Q01320 whole entry): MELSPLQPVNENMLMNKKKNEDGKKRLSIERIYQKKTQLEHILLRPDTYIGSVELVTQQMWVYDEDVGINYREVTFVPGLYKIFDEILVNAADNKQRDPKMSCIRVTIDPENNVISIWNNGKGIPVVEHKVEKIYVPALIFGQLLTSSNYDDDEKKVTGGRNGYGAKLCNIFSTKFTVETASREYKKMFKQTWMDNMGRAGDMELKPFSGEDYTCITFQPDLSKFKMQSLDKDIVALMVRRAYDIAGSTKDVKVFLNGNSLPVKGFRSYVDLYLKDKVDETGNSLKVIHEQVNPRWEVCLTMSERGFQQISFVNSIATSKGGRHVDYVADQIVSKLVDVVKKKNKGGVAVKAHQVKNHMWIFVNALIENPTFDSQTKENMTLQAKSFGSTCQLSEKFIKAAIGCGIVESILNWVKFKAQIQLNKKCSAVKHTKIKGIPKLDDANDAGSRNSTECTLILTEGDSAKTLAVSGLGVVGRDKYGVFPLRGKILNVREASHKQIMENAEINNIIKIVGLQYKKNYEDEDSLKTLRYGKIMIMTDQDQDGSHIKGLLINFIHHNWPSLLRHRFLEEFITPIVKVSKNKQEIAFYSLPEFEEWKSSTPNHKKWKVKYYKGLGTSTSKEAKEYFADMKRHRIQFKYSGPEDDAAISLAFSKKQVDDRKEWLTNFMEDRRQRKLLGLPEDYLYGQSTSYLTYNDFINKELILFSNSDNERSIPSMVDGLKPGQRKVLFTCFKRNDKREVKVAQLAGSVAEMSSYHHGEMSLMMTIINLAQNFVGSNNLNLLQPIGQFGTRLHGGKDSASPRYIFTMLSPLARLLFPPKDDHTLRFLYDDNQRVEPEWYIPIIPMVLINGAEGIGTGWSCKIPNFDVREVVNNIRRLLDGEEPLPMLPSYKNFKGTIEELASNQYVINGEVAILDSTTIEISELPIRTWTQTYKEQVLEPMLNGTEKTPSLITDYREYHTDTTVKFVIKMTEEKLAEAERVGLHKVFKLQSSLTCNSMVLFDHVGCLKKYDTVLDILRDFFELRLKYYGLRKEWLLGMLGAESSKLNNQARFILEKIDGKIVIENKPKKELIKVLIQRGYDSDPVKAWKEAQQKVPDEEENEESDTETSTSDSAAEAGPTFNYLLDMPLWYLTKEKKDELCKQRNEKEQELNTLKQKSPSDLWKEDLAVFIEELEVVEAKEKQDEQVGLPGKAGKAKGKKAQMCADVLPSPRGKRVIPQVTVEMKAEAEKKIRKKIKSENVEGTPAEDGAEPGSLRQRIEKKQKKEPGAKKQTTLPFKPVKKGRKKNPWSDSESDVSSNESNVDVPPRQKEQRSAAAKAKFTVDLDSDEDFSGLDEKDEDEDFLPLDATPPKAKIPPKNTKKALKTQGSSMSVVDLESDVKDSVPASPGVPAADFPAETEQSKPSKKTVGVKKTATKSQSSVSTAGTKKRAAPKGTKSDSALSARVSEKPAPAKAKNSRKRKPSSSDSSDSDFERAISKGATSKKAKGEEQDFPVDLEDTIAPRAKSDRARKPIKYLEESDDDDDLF
Experimental: as §1, §2, §3
Topoisomerase II-induced DNA cleavage reactions: DNA fragments were equilibrated with or without drug in 10 mM Tris-HCl, pH 7.5, 50 mM KCl, 5 mM MgCl2 0.1 mM EDTA, 1 mM ATP and 15 μg/ml bovine serum albumin for 5 minutes before addition of purified topoisomerase II (40 to 70 ng) or HL-60 nuclear extract in 20 μl final reaction volume. Reactions were stopped by adding sodium dodecyl sulfate (SDS) to a final concentration of 1% and proteinase K to 400 μg/ml, followed by incubation for 1 hour at 40° C.
For DNA sequence analysis, samples were precipitated with ethanol and resuspended in 2.5 μl loading buffer (80% formamide, 10 mM NaOH, 1 mM EDTA, 0.1% xylene cyanol and 0.1% bromophenol blue). Samples were heated to 90° C. and immediately loaded into DNA sequencing gels (6% polyacrylamide; 19:1, acrylamide:bis) containing 7M urea in (1×) TBE buffer. Electrophoresis was at 2500 V (60 W) for 4 hours. Gels were dried on 3M paper sheets and autoradiographed with Kodak XAR-2 film. See Pommier et al. (1991), supra.
Induction of top 2 cleavage by azatoxin was tested directly with the use of purified murine leukemia top 2. […] Sites of cleavage were also determined by DNA sequencing in the 5' flank of c-myc first intron.

SV40 DNA = test: DNA unwinding (intercalation) assay with excess topoisomerase I; assay type: biochemical, simian virus 40; conditions: relaxed SV40 DNA, excess topoisomerase I; concentrations as high as 1 mM
Experimental: To assess DNA unwinding, see Pommier et al., Nucleic Acids Res. 15: 6713-31(1987), the DNA was relaxed first by treatment for 15 minutes with top 1 (20 units), after which the test agent was added. These steps were carried out at 37° C. DNA-agent-top 1 mixtures were incubated for an additional 30 minutes and then stopped as described above. Samples were then subjected to agarose gel electrophoresis as described above.
This was also the case for the 2 azatoxin isomers, 8 and 10, and for the demethylepipodophyllotoxins, DMDP and DMEP. Similar results were obtained with supercoiled DNA.

SMILES | Topoisomerase II inhibition (Topoisomerase II) | top 2 inhibition / top 2 activity (in words) (Topoisomerase II) | DNA unwinding (SV40 DNA) | further results
COc1cc([C@@H]2c3[nH]c4ccccc4c3C[C@H]3COC(=O)N32)ccc1O [Compound 2, 5R, 11aS-3-One-5,4,11,11a-tetrahydro-5-(3-methoxy-4-hydroxyphenyl)-1H, 6H-oxazolo[3', 4': 1.6]pyrido[3,4-b]indole] | .smallcircle. |  |  | factor of reduction of top 2 activity by monodemethoxylation of pendant ring (Topoisomerase II; versus azatoxin): 10
COc1cc([C@@H]2c3cc4c(cc3[C@@H](O[C@@H]3O[C@@H]5CO[C@@H](C)O[C@H]5[C@H](O)[C@H]3O)[C@H]3COC(=O)[C@H]23)OCO4)cc(OC)c1O [VP-16, etoposide, reference compound] |  |  |  | suppression of DNA cleavage at high drug concentrations [1]: not suppressed at high drug concentrations (up to 1 mM)
O=C1OC[C@@H]2Cc3c([nH]c4ccccc34)[C@@H](c3ccc(O)cc3)N12 [Compound 3, 5R, 11aS-3-one-5,4,11,11a-tetrahydro-5-(4-hydroxyphenyl)-1H, 6H-oxazolo[3',4':1,6]pyrido[3,4-b]indole] | .largecircle. | abolished the top 2 activity |  | 
COc1cc([C@@H]2c3[nH]c4ccccc4c3[C@@H](O)[C@H]3COC(=O)N23)cc(OC)c1O [Compound 6, 5R,11R,11aS-3-One-11-hydroxy-5,4,11,11a-tetrahydro-5-(3,5-dimethoxy-4-hydroxyphenyl)-1H, 6H-oxazolo[3'4:1,6]pyrido[3,4-b]indole] |  | measurable but not strong top 2 activity |  | effect of hydroxyl substitution on top 2 activity (Topoisomerase II): significantly decreases top 2 activity
COc1cc([C@@H]2c3cc4c(cc3C[C@H]3COC(=O)[C@@H]32)OCO4)cc(OC)c1O [DMDP, 4'-demethyl-4-desoxypodophyllotoxin, reference compound] |  |  | did not induce detectable DNA unwinding even at drug concentrations as high as 1 mM | top 2 cleavage sites induced (number/amount) ([2]; SV40 and c-myc DNA, purified murine top 2): induced less cleavage that azatoxin; top 2 cleavage pattern ([2]; compared with other top 2 inhibitors): at distinct cleavages sites
COc1cc([C@@H]2c3[nH]c4ccccc4c3C[C@H]3COC(=O)N32)cc(OC)c1OC [Compound 4, 5R,11aS-3-one-5,4,11,11a,tetrahydro-5-(3,4,5-trimethoxyphenyl)-1H, 6H-oxazolo[3',4':1,6]pyrido[3,4-b]indole] | .largecircle. |  |  | 
COc1cc([C@@H]2c3c([nH]c4ccccc34)C[C@H]3COC(=O)N32)cc(OC)c1O (relative stereo) [Compound 8] | .largecircle. | inactivity | did not induce detectable DNA unwinding even at drug concentrations as high as 1 mM | 
COc1cc([C@@H]2c3[nH]c4ccccc4c3C[C@@H]3COC(=O)N32)cc(OC)c1O [Compound 9, 5R,11aR-3-One-5,4,11,11a-tetrahydro-5-(3,5-dimethoxy-4-hydroxyphenyl)-1H, 6H-oxazolo[3'4':1,6']pyrido[3,4-b]indole] | .largecircle. | inactive |  | 
COc1cc([C@@H]2C3=C(C[C@H]4COC(=O)N42)c2cccc4cccc3c24)cc(OC)c1O (relative stereo) [Compound 7, 5,11a-trans-3-one-5,4, 11, 11a-tetrahydro-5-(3,5-dimethoxy-4-hydroxyphenyl)-1H, 10H-oxazol [3', 4':1,6]pyrido[1,2-b]acenapthylene] | .largecircle. | inactive |  | 
CS(=O)(=O)Nc1ccc([C@@H]2c3[nH]c4ccccc4c3C[C@H]3COC(=O)N32)cc1 [Compound 5] | .largecircle. |  |  | 
COc1cc([C@H]2c3[nH]c4ccccc4c3C[C@H]3COC(=O)N32)cc(OC)c1O [Compound 10, 5S, 11aS-3-One-5,4,11,11a-tetrahydro-5-(3,5-dimethoxy-4-hydroxyphenyl)-1H, GH-oxazolo[3'4':1,6]pyrido[3,4-b]indole] | .largecircle. | inactive | did not induce detectable DNA unwinding even at drug concentrations as high as 1 mM | 
COc1cc([C@@H]2c3cc4c(cc3[C@@H](O)[C@H]3COC(=O)[C@H]23)OCO4)cc(OC)c1O [DMEP, 4'-demethylepipodophyllotoxin, reference compound] |  |  | did not induce detectable DNA unwinding even at drug concentrations as high as 1 mM | top 2 cleavage potency (in words) [2]: at least as potent as VP-16; effect of hydroxyl substitution on top 2 activity (Topoisomerase II): increases activity
